Measured values from patent publication US11014871B2, ““Multi-target” compounds with inhibitory activity towards histone deacetylases and tubulin polymerisation, for use in the treatment of cancer” (UNIVERSITE PARIS-SUD, priority 2016, dated 2021).
Entries after “also recorded” stand apart in the source; their conditions may differ. Like-named read-outs stand apart in the source and are kept apart here.

How the values were obtained:
HCT116 = assay: Cytotoxic activity on HCT116; type: cell-based; conditions: for IC50: Homo sapiens, read-out: HCT116 IC50; for antiproliferative / cytotoxic activity in words: comment on Table 1
Procedure: (§1) The cytotoxic activity of the prepared compounds was evaluated on various human cancer cell lines. The selected line was incubated at 37° C. in the presence of one of the novel compounds, added to the culture medium at various concentrations.

Tubulin = assay: Inhibition of tubulin polymerisation (ITP); type: biochemical, sheep; conditions: tubulin 10 μM; inhibition of maximum assembly rate
Procedure: To verify whether the antiproliferative activities of novel molecules 2 and 3 correlate with their anti-tubulin effects, their ability to inhibit tubulin polymerisation into microtubules was measured in vitro. Tubulin was purified from sheep brains according to the Shelanski method by two assembly-disassembly cycles. The stock solution (15-20 mg/mL), stored at −196° C., is thawed and diluted in the assembly buffer (0.1 M MES, 0.5 mM MgCl2, 1 mM EGTA, and 1 mM GTP, pH 6.6) to a final concentration of 10 μM. Tubulin assembly was monitored by fluorescence on 96-well plates according to the method of Barron et al. The tubulin solution (10 μM, 100 μL per well) was supplemented with inhibitor (DMSO, 1 μL) and incubated for 45 min at room temperature. GTP (1 mM final) was then added, the solution was rapidly mixed and the fluorescence (λex=350 nm, λem=440 nm) was measured on a Wallac Victor fluorimeter (Perkin Elmer). Fifty-percent inhibition of the maximum assembly rate (IC50) was determined in duplicate or triplicate on 10 concentrations flanking the IC50. For comparison, deoxypodophyllotoxin and isoCA-4 were used as positive controls.

HDACs 1 to 11 = assay: Inhibition of HDACs 1 to 11 (panel); type: biochemical; conditions: percentage inhibition at test concentration of 1.0^−5 M
many human cancer lines = many human cancer lines and resistant lines; read-out: cytotoxic IC50; cited from earlier work
K562R = assay: Cytotoxic activity on K562R; type: cell-based; conditions: Homo sapiens, K-562R; 72 hours of incubation; imatinib-resistant
Procedure: as §1

HDAC11 = target: T1, HDAC11 (Homo sapiens, UniProt Q96DB2); assay: Inhibition of HDAC11 activity; type: biochemical; conditions: FIG. 5
T1 sequence (Q96DB2 1-347): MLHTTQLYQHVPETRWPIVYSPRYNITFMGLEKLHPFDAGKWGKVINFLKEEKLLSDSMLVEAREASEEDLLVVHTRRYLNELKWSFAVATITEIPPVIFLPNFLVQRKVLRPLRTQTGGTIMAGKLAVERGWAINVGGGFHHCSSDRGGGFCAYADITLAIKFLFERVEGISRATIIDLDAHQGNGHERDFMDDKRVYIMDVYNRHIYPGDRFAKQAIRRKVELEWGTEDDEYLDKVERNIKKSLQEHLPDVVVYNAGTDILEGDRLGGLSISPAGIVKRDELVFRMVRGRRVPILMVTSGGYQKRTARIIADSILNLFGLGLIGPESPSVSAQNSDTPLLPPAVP

A549 = assay: Cytotoxic activity on A549; type: cell-based; conditions: Homo sapiens, 72 hours of incubation, read-out: Cytotoxicity IC50 A549
Procedure: as §1

K562 = assay: Cytotoxic activity on K562; type: cell-based; conditions: Homo sapiens, 72 hours of incubation, read-out: Cytotoxicity IC50 K562
Procedure: as §1

MCF7 = assay: Cytotoxic activity on MCF7; type: cell-based; conditions: Homo sapiens, 72 hours of incubation, read-out: Cytotoxicity IC50 MCF7
Procedure: as §1

PC3 = assay: Cytotoxic activity on PC3; type: cell-based; conditions: Homo sapiens, PC-3; 72 hours of incubation; read-out: Cytotoxicity IC50 PC3
Procedure: as §1

U87 = assay: Cytotoxic activity on U87; type: cell-based; conditions: Homo sapiens, U-87 MG; 72 hours of incubation; read-out: Cytotoxicity IC50 U87
Procedure: as §1

U2OS = assay: Cytotoxic activity on U2OS; type: cell-based; conditions: Homo sapiens, 72 hours of incubation, read-out: Cytotoxicity IC50 U2OS
Procedure: as §1

SOJ6 = assay: Cytotoxic activity on SOJ6; type: cell-based; conditions: Homo sapiens; 72 hours of incubation; read-out: Cytotoxicity IC50 SOJ6
Procedure: as §1

BxPC3 = assay: Cytotoxic activity on BxPC3; type: cell-based; conditions: Homo sapiens, BXPC-3; 72 hours of incubation; read-out: Cytotoxicity IC50 BxPC3
Procedure: as §1

MiaPaCa 2 = assay: Cytotoxic activity on MiaPaCa 2; type: cell-based; conditions: Homo sapiens, MIA PaCa-2; 72 hours of incubation; read-out: Cytotoxicity IC50 MiaPaCa 2
Procedure: as §1

HDAC8 = target: T2, HDAC8 (Homo sapiens, UniProt Q9BY41); assay: Inhibition of HDAC8 activity; type: biochemical
T2 sequence (Q9BY41 1-377): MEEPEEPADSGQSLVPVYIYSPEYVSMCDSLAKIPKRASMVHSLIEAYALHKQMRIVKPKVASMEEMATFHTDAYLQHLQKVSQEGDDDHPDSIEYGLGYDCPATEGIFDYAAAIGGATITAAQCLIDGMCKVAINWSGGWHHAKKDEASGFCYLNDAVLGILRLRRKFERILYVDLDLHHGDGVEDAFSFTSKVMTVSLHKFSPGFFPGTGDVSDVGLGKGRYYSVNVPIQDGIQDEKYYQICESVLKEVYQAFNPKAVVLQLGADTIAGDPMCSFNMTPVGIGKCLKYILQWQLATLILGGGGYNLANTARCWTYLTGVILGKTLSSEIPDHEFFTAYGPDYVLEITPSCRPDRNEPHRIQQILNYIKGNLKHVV

other human tumour lines = assay: Cytotoxicity to other human tumour lines (panel); type: cell-based; conditions: A549, K562, MCF7, PC3, U87, U2OS, SOJ6, BxPC-3, MiaPaCa-2, read-out: IC50 values across other human tumour lines
Procedure: as §1

[1] = HCT-116, 72 hours of incubation

| Structure (SMILES) | IC50 (HCT116; [1]) [nM] | antiproliferative / cytotoxic activity in words (HCT116) | IC50 (Tubulin) [nM] | selective inhibitory activity among HDACs 1 to 11 (HDACs 1 to 11) | also measured |
| --- | --- | --- | --- | --- | --- |
| C=C(c1cc(OC)c(OC)c(OC)c1)c1ccc(OC)c(/C=C/C(=O)NO)n1 [Compound 17, (E)-N-Hydroxy-3-(3-methoxy-6-(1-(3,4,5-trimethoxyphenyl)vinyl)pyridin-2-yl)acrylamide] | 37.2 ± 0.6 | excellent antiproliferative activity | 7500 ± 1500 |  |  |
| C=C(c1cc(OC)c(OC)c(OC)c1)c1ccc(OC)c(C(=O)NO)c1 [Compound 1, N-Hydroxy-2-methoxy-5-(1-(3,4,5-trimethoxyphenyl)vinyl)benzamide] | 233 ± 22 |  | 20000 ± 1200 |  |  |
| C=C(c1cc(OC)c(OC)c(OC)c1)c1ccc(OC)cc1/C=C/C(=O)NO [Compound 8, (E)-N-Hydroxy-3-(5-methoxy-2-(1-(3,4,5-trimethoxyphenyl)vinyl)phenyl)acrylamide] | 2 ± 0.1 |  | 2100 ± 400 | selective inhibitory activity against HDAC6, HDAC8 and HDAC11; also recorded: selective activity for HDAC6, HDAC8 and HDAC11 |  |
| COc1ccc(/C=C\c2cc(OC)c(OC)c(OC)c2)cc1O [CA-4, combretastatin A-4] |  |  |  |  | IC50 (many human cancer lines): 1 to 2 nM |
| C=C(c1ccc(OC)c(C#CCCC(=O)NO)c1)c1cc(OC)c(OC)c(OC)c1 [Compound 3, N-Hydroxy-5-(2-methoxy-5-(1-(3,4,5-trimethoxyphenyl)vinyl)phenyl)pent-4-ynamide] | 35 | cytotoxic at nanomolar concentrations | 1700 | selective inhibitory activity against HDAC8 and HDAC11; also recorded: selective activity for HDAC8 and HDAC11 | IC50 (K562R): 33 nM; IC50 (HDAC11): 11000 nM |
| C=C(c1cc(OC)c(OC)c(OC)c1)c1ccc2c(c1)cc(/C=C/C(=O)NO)n2C [Compound 12, (E)-N-Hydroxy-3-(1-methyl-5-(1-(3,4,5-trimethoxyphenyl)vinyl)-1H-indol-2-yl)acrylamide] | 12 ± 2.5 | excellent antiproliferative activity | 5400 ± 1200 | selective inhibitory activity against HDAC6, HDAC8 and HDAC11; also recorded: selective activity for HDAC6, HDAC8 and HDAC11 |  |
| C=C(c1ccc(OC)c(O)c1)c1cc(OC)c(OC)c(OC)c1 [isoCA-4, Isocombretastatin A-4, reference compound] |  |  | 1800 ± 400 |  | IC50 (HCT116; HCT-116, 72 h): 2 nM |
| C=C(c1ccc(OC)c(/C=C/C(=O)NO)c1)c1cc(OC)c(OC)c(OC)c1 [Compound 2, (E)-N-Hydroxy-3-(2-methoxy-5-(1-(3,4,5-trimethoxyphenyl)vinyl)phenyl)acrylamide] | 2.5 |  | 1600 | selective inhibitory activity against HDAC8; also recorded: selective activity for HDAC8 and HDAC11 | IC50 (K562R): 1.6 nM; IC50 (A549): 1.7 nM; IC50 (K562): 1.6 nM; IC50 (MCF7): 2 nM; IC50 (PC3): 2.4 nM; IC50 (U87): 1.6 nM; IC50 (U2OS): 1.9 nM; IC50 (SOJ6): 6.8 nM; IC50 (BxPC3): 2.9 nM; IC50 (MiaPaCa 2): 5.1 nM; IC50 (HDAC8): 340 nM; IC50 (other human tumour lines): 1.6 to 6.8 nM |
| C=C(c1cc(OC)c(OC)c(OC)c1)c1ccc2c(c1)c(/C=C/C(=O)NO)cn2C [Compound 11, (E)-N-Hydroxy-3-(1-methyl-5-(1-(3,4,5-trimethoxyphenyl)vinyl)-1H-indol-3-yl)acrylamide] | 2.2 ± 0.26 | excellent antiproliferative activity | 3700 ± 500 | selective inhibitory activity against HDAC6 and HDAC8; also recorded: selective activity for HDAC6 and HDAC8 |  |
| C=C(c1cc(OC)c(OC)c(OC)c1)c1ccc2c(c1)cc(C(=O)NO)n2C [Compound 43, N-Hydroxy-1-methyl-5-(1-(3,4,5-trimethoxyphenyl)vinyl)-1H-indole-2-carboxamide] | 36 ± 4 | excellent antiproliferative activity | 81000 ± 15000 |  |  |
| C=C(c1cc(OC)c(OC)c(OC)c1)c1ccc2c(ccn2CCC(=O)NO)c1 [Compound 44, N-Hydroxy-3-(5-(1-(3,4,5-trimethoxyphenyl)vinyl)-1H-indol-1-yl)propanamide] | 393 ± 4.1 |  | 22000 ± 2000 |  |  |
| C=C(c1ccc(OC)c(C#CCCCC(=O)NO)c1)c1cc(OC)c(OC)c(OC)c1 [Compound 4, N-Hydroxy-6-(2-methoxy-5-(1-(3,4,5-trimethoxyphenyl)vinyl)phenyl)hex-5-ynamide] | 372 ± 5 |  | 18000 ± 1200 |  |  |
| C=C(c1cc(OC)c(OC)c(OC)c1)c1ccc2c(c1)c(C(=O)NO)cn2C [Compound 25, N-Hydroxy-1-methyl-5-(1-(3,4,5-trimethoxyphenyl)vinyl)-1H-indole-3-carboxamide] | 30 ± 1.5 | excellent antiproliferative activity | 7300 ± 3300 |  |  |
